Marks after values point to notes of the source that are not given here. Each block holds one compound with its values, some of them ahead of it.
Columns and labels:
[1] = tested on: radiolabeled mAb-conjugates; assay: In vitro Label release from radiolabeled mAb-TCO-chelate conjugates incubated with Cleaving Agents (SEC); details: 37°C, 15-24 h; for release (%) without Cleaving Agent: no Cleaving Agent
Protocol: Briefly, mAb solutions in PBS (4 mg/mL final concentration) were added with 15-20 eq of the NHS-derivative (dissolved at 10 mg/mL in DMSO) and the pH was adjusted to 9 with 1M sodium carbonate. The reaction mixtures were incubated at rt in the dark for 2 h then the products were purified by dialysis (20 kDa MW cut-off membranes) in chelex-treated 0.25M NH4OAc pH 5.5.
After 15-24 h incubation the mixtures were analyzed by SEC and the amount of released Label was quantified from the radioactivity elution profile.

[2] = Radioactivity in blood and tumors stated jointly for LS174T and BT-474 tumor-bearing mice (^111In-trastuzumab-1.8, 2.10); assay type: in vivo; details: ^111In-trastuzumab-1.8 followed by 2.10 48 h post-injection
Protocol: Female Balb/C mice were injected ca 1 million LS174T colon carcinoma cells or 10 million BT-474 breast cancer cells s.c. in the flank. […] Control groups were euthanized 72 h post-mAb injection.

[3] = ^111In biodistribution in normal mice after ^111In-trastuzumab-1.8 followed by 2.10 or vehicle; assay type: in vivo
[4] = TCO derivative conjugated to trastuzumab, ^111In, 50% mouse plasma in PBS
[5] = TCO derivative conjugated to trastuzumab, ^111In, PBS
[6] = Label release from TCO derivative 1.14 on CC49, ^89Zr, PBS
[7] = Label release from TCO derivative 1.15 on CC49, ^89Zr, PBS
[8] = Label release from TCO derivative 1.17 on CC49, ^89Zr, PBS
[9] = Label release from TCO derivative 1.17 on trastuzumab, ^89Zr, PBS
[10] = Label release from TCO derivative 1.2 on trastuzumab, ^111In, 50% mouse plasma in PBS
[11] = Label release from TCO derivative 1.2 on trastuzumab, ^111In, PBS
[12] = Label release from TCO derivative 1.4 on trastuzumab, ^111In, 50% mouse plasma in PBS
[13] = Label release from TCO derivative 1.8 on trastuzumab, ^111In, 50% mouse plasma in PBS
[14] = Label release from TCO derivative 1.8 on trastuzumab, ^111In, PBS
[15] = ^111In-trastuzumab-1.8 followed by 2.10 1 h post-mAb, euthanized 24 h later, SD, n = 4
[16] = ^111In-trastuzumab-1.8 followed by 2.10 24 h post-mAb, euthanized 24 h later, SD, n = 4
[17] = Label release from TCO derivative 1.4 on trastuzumab, ^111In, PBS
[18] = Label release from TCO derivative 1.8 on trastuzumab, ^177Lu, PBS

Structure (SMILES): CN(CC(=O)NCCOCCOCCOCCOCCNC(=O)CCC(C(=O)O)N1CCN(CC(=O)O)CCN(CC(=O)O)CCN(CC(=O)O)CC1)C(=O)O[C@@H]1/C=C/CC[C@](C)(C(=O)NCCOCCOCCOCCOCCOCCOCCOCCOCCOCCNC(=O)CCN2C(=O)C=CC2=O)CC1 (some centres unmarked) [Compound 1.8, Mal-PEG9-TCO-Sar-PEG4-DOTAGA]
release (%) without Cleaving Agent [1, 4]: 6.6%
release (%) without Cleaving Agent [1, 5]: 5.8%

Structure (SMILES): Oc1cccnc1-c1nnc(-c2ncccc2O)nn1 [Compound 2.1, 2,2′-(1,2,4,5-Tetrazine-3,6-diyl)bis(pyridin-3-ol)]
release (%) [1, 6]: 53.0%
release (%) [1, 7]: 62.3%
release (%) ([1]; Label release from TCO derivative 1.17 on CC49, ^89Zr, 50% mouse plasma in PBS): 81.3%
release (%) [1, 8]: 88.0%
release (%) [1, 9]: 88.9%
release (%) ([1]; Label release from TCO derivative 1.2 on CC49, ^111In, PBS): 80.3%
release (%) ([1]; Label release from TCO derivative 1.2 on cetuximab, ^111In, PBS): 85.7%
release (%) ([1]; Label release from TCO derivative 1.2 on girentuximab, ^111In, PBS): 83.2%
release (%) ([1]; Label release from TCO derivative 1.2 on rituximab, ^111In, PBS): 77.9%
release (%) [1, 10]: 88.1%
release (%) [1, 11]: 78.2%
release (%) [1, 12]: 81.8^a %
release (%) ([1]; Label release from TCO derivative 1.6 on trastuzumab, ^111In, 50% mouse plasma in PBS): 68.9%
release (%) ([1]; Label release from TCO derivative 1.6 on trastuzumab, ^111In, PBS): 83.6%
release (%) ([1]; Label release from TCO derivative 1.7 on trastuzumab, ^111In, 50% mouse plasma in PBS): 63.4%
release (%) ([1]; Label release from TCO derivative 1.7 on trastuzumab, ^111In, PBS): 78.9%
release (%) [1, 13]: 77.0%
release (%) [1, 14]: 86.4%

radioactivity uptake in tumors versus control mice ([2]; euthanized 24 h later): somewhat lower
radioactivity in blood ([2]; euthanized 24 h later (LS174T or BT-474)): 2-3 % ID/g
reduction in blood radioactivity with respect to control mice ([3]; ^111In-trastuzumab-1.8 (ca. 0.5 mg/kg) followed by 2.10 (ca. 33.5 μmol/kg) either 1 h or 24 h post-mAb, 24 h after Cleaving Agent): ca. 70%
^111In biodistribution, Blood [3, 15]: 3.61 ± 0.44 % injected dose per gram
^111In biodistribution, Bone [3, 15]: 0.44 ± 0.03 % injected dose per gram
^111In biodistribution, Brain [3, 15]: 0.13 ± 0.08 % injected dose per gram
^111In biodistribution, Heart [3, 15]: 0.87 ± 0.10 % injected dose per gram
^111In biodistribution, Kidney L [3, 15]: 5.39 ± 0.84 % injected dose per gram
^111In biodistribution, Lg. intestine [3, 15]: 0.34 ± 0.07 % injected dose per organ
^111In biodistribution, Liver [3, 15]: 3.35 ± 0.10 % injected dose per gram
^111In biodistribution, Lung [3, 15]: 1.94 ± 0.43 % injected dose per gram
^111In biodistribution, Muscle [3, 15]: 0.27 ± 0.02 % injected dose per gram
^111In biodistribution, Sm. Intestine [3, 15]: 0.61 ± 0.04 % injected dose per organ
^111In biodistribution, Spleen [3, 15]: 1.19 ± 0.16 % injected dose per gram
^111In biodistribution, Blood [3, 16]: 2.91 ± 0.53 % injected dose per gram
^111In biodistribution, Bone [3, 16]: 0.65 ± 0.03 % injected dose per gram
^111In biodistribution, Brain [3, 16]: 0.11 ± 0.02 % injected dose per gram
^111In biodistribution, Heart [3, 16]: 0.93 ± 0.09 % injected dose per gram
^111In biodistribution, Kidney L [3, 16]: 4.75 ± 0.45 % injected dose per gram
^111In biodistribution, Lg. intestine [3, 16]: 0.56 ± 0.14 % injected dose per organ
^111In biodistribution, Liver [3, 16]: 4.68 ± 1.11 % injected dose per gram
^111In biodistribution, Muscle [3, 16]: 0.29 ± 0.05 % injected dose per gram
^111In biodistribution, Sm. Intestine [3, 16]: 1.04 ± 0.21 % injected dose per organ
^111In biodistribution, Spleen [3, 16]: 1.89 ± 0.17 % injected dose per gram
Structure (SMILES): O=C(CCCC(=O)Nc1cnccc1-c1nnc(-c2ccncc2NC(=O)CCCC(=O)NCCOCCOCCOCCOCCOCCOCCOCCOCCOCCO)nn1)NCCOCCOCCOCCOCCOCCOCCOCCOCCOCCO [Compound 2.10, N^1,N^1′-(4,4′-(1,2,4,5-Tetrazine-3,6-diyl)bis(pyridine-4,3-diyl))bis(N^5-(29-hydroxy-3,6,9,12,15,18,21,24,27-nonaoxanonacosyl)glutaramide)]
release (%) [1, 6]: 45.2%
release (%) [1, 7]: 50.0%
release (%) [1, 8]: 50.0%
release (%) [1, 10]: 52.2%
release (%) [1, 11]: 53.4%
release (%) [1, 17]: 57.9%
release (%) ([1]; Label release from TCO derivative 1.8 on CC49, ^111In, PBS): 79.9%
release (%) ([1]; Label release from TCO derivative 1.8 on cetuximab, ^111In, PBS): 84.9%
release (%) ([1]; Label release from TCO derivative 1.8 on girentuximab, ^111In, PBS): 83.6%
release (%) ([1]; Label release from TCO derivative 1.8 on rituximab, ^111In, PBS): 82.5%
release (%) [1, 13]: 82.4, 82.4^a %
release (%) [1, 14]: 82.4, 82.4^a %
release (%) [1, 18]: 81.2%

Structure (SMILES): CC(=O)N(O)CCCCCNC(=O)CCC(=O)N(O)CCCCCNC(=O)CCC(=O)N(O)CCCCCNC(=O)CN(C)C(=O)O[C@@H]1/C=C/CC[C@](C)(C(=O)ON2C(=O)CCC2=O)CC1 [Compound 1.15, NHS-TCO-Sar-DFO]
release (%) without Cleaving Agent ([1]; TCO derivative conjugated to CC49, ^89Zr, PBS): 7.3%

Structure (SMILES): Oc1cnccc1-c1nnc(-c2ccncc2O)nn1 [Compound 2.2, 4,4′-(1,2,4,5-Tetrazine-3,6-diyl)bis(pyridin-3-ol)]
release (%) [1, 6]: 60.3%
release (%) [1, 7]: 65.8%
release (%) [1, 8]: 87.2%
release (%) [1, 9]: 61.4%
release (%) [1, 17]: 69.5%
release (%) [1, 14]: 81.6%

Structure (SMILES): c1ccc(-c2nnc(-c3ccccn3)nn2)nc1 [Compound 2.14, reference compound]
release (%) [1, 14]: 51.5%

Structure (SMILES): Cc1nnc(-c2nccc(CNC(=O)CCCC(=O)NC(CO)CO)n2)nn1 [Compound 2.20]
release (%) [1, 14]: 67.2%

Structure (SMILES): Cc1nnc(-c2ncccn2)nn1 [Compound 2.19, reference compound]
release (%) [1, 14]: 69.1%

Structure (SMILES): CC(=O)N[C@H]1C(OCCOCCOCCn2cc(COCCC(=O)NCCCCC(NC(=O)CCOCc3cn(CCOCCOCCOC4O[C@H](CO)[C@H](O)[C@H](O)[C@H]4NC(C)=O)nn3)C(=O)NCc3ccc(-c4nncnn4)cc3)nn2)O[C@H](CO)[C@H](O)[C@@H]1O (some centres unmarked) [Compound 2.11, Tetrazine-bis-GalNAc]
release (%) [1, 14]: 67.2%

Structure (SMILES): Cc1nnc(C)nn1 [Compound 2.13, reference compound]
release (%) [1, 6]: 53.6%
release (%) [1, 7]: 66.3%
release (%) [1, 8]: 72.3%
release (%) [1, 9]: 84.4%
release (%) [1, 12]: 62.9^a %
release (%) ([1]; Label release from TCO derivative 1.4 on trastuzumab, ^177Lu, PBS): 69.5%
release (%) [1, 14]: 71.4%
release (%) [1, 18]: 88.9%

Structure (SMILES): NCc1ccc(-c2nncnn2)cc1 [Compound 2.16, reference compound]
release (%) [1, 14]: 64.5%

Structure (SMILES): O=C(O)CCCC(=O)Nc1cnccc1-c1nnc(-c2ccncc2NC(=O)CCCC(=O)O)nn1 [Compound 2.9, 5,5′-((4,4′-(1,2,4,5-Tetrazine-3,6-diyl)bis(pyridine-4,3-diyl))bis(azanediyl))bis(5-oxopentanoic acid)]
release (%) [1, 13]: 67.0^a %

Structure (SMILES): CC(=O)Nc1cccnc1-c1nnc(-c2ncccc2NC(C)=O)nn1 [Compound 2.4, N,N′-(2,2′-(1,2,4,5-Tetrazine-3,6-diyl)bis(pyridine-3,2-diyl))diacetamide]
release (%) [1, 13]: 54.5^a %

Structure (SMILES): C[C@]1(C(=O)ON2C(=O)CCC2=O)CC/C=C/[C@@H](OC(=O)NCCNC(=O)CCC(C(=O)O)N2CCN(CC(=O)O)CCN(CC(=O)O)CCN(CC(=O)O)CC2)CC1 (some centres unmarked) [Compound 1.4, NHS-TCO-C2-DOTAGA]
release (%) without Cleaving Agent [1, 4]: 7.1%
release (%) without Cleaving Agent [1, 5]: 6.8%

Structure (SMILES): O=C(CCCC(=O)Nc1cccnc1-c1nnc(-c2ncccc2NC(=O)CCCC(=O)NCCOCCOCCOCCOCCOCCOCCOCCOCCOCCO)nn1)NCCOCCOCCOCCOCCOCCOCCOCCOCCOCCO [Compound 2.8, N^1,N^1′-(2,2′-(1,2,4,5-Tetrazine-3,6-diyl)bis(pyridine-3,2-diyl))bis(N^5-(29-hydroxy-3,6,9,12,15,18,21,24,27-nonaoxanonacosyl)glutaramide)]
release (%) [1, 13]: 60.6%
release (%) [1, 14]: 79.9%

— patent US20220331458A1, “AGENTS FOR CLEAVING LABELS FROM BIOMOLECULES IN VIVO” (TAGWORKS PHARMACEUTICALS B.V., priority 2019, published 2022)
